In brackets after ≈: the same amount, converted by molar mass.

The test system of test [1] is Streptococcus sanguinis SK36. Nature of the test: Streptococcus sanguinis cell growth and biofilm formation. Format: cell-based. Particulars: 1.56 μM, P > 0.05.
Test [2] concerns the target S. mutans dihydrofolate reductase (SmDHFR) (Streptococcus mutans, UniProt Q8DUI2). Nature of the test: SmDHFR enzymatic activity assay. The format is biochemical.
The next test deals with S. mutans biofilm. Nature of the test: Streptococcus mutans biofilm formation inhibition. The format is cell-based. The settings on record: 16 h, read-out: IC50 Biofilm.
Test [3] has as its system Streptococcus mutans UA159. Nature of the test: Streptococcus mutans cell growth inhibition. Format: cell-based.
The subject of test [4] is Streptococcus gordonii DL1. Nature of the test: Streptococcus gordonii cell growth and biofilm formation. Format: cell-based. The settings on record: 1.56 μM, P > 0.05.

In the case of `COc1cc(NCc2ccc3nc(N)nc(N)c3c2C)cc(OC)c1OC` [TMQ, trimetrexate], the “inhibition of biofilm formation of S. sanguinis” value in test [1] is “did not inhibit”. Besides, the IC50 worked out at 2.2 ± 0.7 nM in test [2]; 49.1 ± 4.1 nM with S. mutans biofilm; 42.5 ± 3.22 nM in test [3] (UA159, read-out: IC50 Growth). The compound further gave a Ki in test [2] of 1.3 ± 0.4 nM. Further, the MIC in test [3] (UA159) stood at 0.0488 µM (≈ 0.018 µg/mL). In addition, in test [4], the “inhibition of biofilm formation of S. gordonii” value is reported as “did not inhibit”.

A word on the IC50: it is the concentration that gives 50% inhibition. For orientation: Ki means the dissociation constant of the complex between target and ligand, obtained from inhibition or displacement. Low values mean a stronger hold on the target, high ones a looser hold on the target. By MIC is commonly meant the smallest concentration in the dilution series that meets the test's criterion for growth inhibition. A high value points to weaker potency.

For the origin of these results see article PMC4509821 (International journal of antimicrobial agents, 2015).
